Measurements published in US20210275498A1, “IMIDAZOLYL ETHANAMIDE PENTANDIOIC ACID FOR USE IN THERAPY OF SYMPTOMS RELATED TO EXPOSURE TO LETHAL RADIATION” (priority 2018, published 2021).

Assays:
Assay type in all cases: in vivo
[1] = test system: C57BL/6 mice; assay: Peripheral hematology after whole-body irradiation; set-up: key to Supporting variable: Hematology (trend): positive trend (descriptively) +; negative trend (descriptively) −; no difference (descriptively) 0
Description: The primary outcome of this study was mortality and secondary outcomes were changes in hematology (peripheral and bone marrow). The endpoints were chosen to follow Animal Rule requirements that state that animal study endpoint be clearly related to the clinical benefit (generally, the enhancement of survival or prevention of major morbidity). The secondary endpoints were chosen to potentially contribute to an understanding of the disease or condition and a characterization of the treatment effect.

[2] = test system: C57BL/6 mice; assay: ARS scoring (posture, coat, behavior) after whole-body irradiation; set-up: key to Supporting variable: ARS scores (trend): positive trend (descriptively) +; negative trend (descriptively) −; no difference (descriptively) 0
Protocol: Scores on a scale of 1 to 4 (minimal, mild, moderate and severe) for posture, coat, and behavior were recorded twice daily per SNBL SOP, beginning on Day −3, except on the day of scheduled necropsy when scoring occurred only once. Observations were performed by 5 individuals during the course of the study.
After Day 0, the first ARS scoring began in the morning and the second ARS scoring began 4 to 6 hours following the completion of the morning ARS scoring. On the day of scheduled necropsy, ARS scoring occurred in the morning, prior to necropsy.
Based on the ARS Scoring SNBL SOP, if the sum of the three parameter scores totaled 8 or higher, the animal was considered moribund and was euthanized with an unscheduled necropsy performed according to the moribund animal SOP.

[3] = test system: C57BL/6 mice; assay: Gross pathology and histopathology (testes degeneration, bone marrow cellularity) after whole-body irradiation; set-up: key to Supporting variable: Bone marrow celluarity (trend) / Supporting variable: Testes degradation (trend): positive trend (descriptively) +; negative trend (descriptively) −; no difference (descriptively) 0
[4] = Group 4 ML (POx2): 25 mg/kg per os, Day −3 to 0 (6x), prophylactic, 5.8 Gy
[5] = Group 3 ML (IPx2): 25 mg/kg IP, Day −3 to 0 (6x), prophylactic, 5.8 Gy
[6] = Group 5 ML (POx1): 50 mg/kg per os SID Day −2, −1, 0, prophylactic, 5.8 Gy
[7] = Group 9 MH (POx1): 50 mg/kg per os SID Day 1, 2, 3, therapeutic, 6.0 Gy
[8] = Group 6 GL (SCx1): 0.34 mg/kg SC SID Day 1, 2, 3, therapeutic, 5.8 Gy
[9] = Day 14 necropsy, Group 6: 5.8 Gy, subcutaneous, 0.34 mg/kg, Days 1, 2 and 3

O=C(O)CCCC(=O)NCCc1c[nH]cn1 [Myelo001, 5-{[2-(1H-imidazol-4-yl)ethyl]amino}-5-oxo-pentanoic acid]
hemoglobin, red blood cells, hematocrit compared to group 8 ([1]; Day 14 and Day 30, Group 9 MH (POx1): 50 mg/kg per os SID Day 1, 2, 3, therapeutic, 6.0 Gy): in favor of group 9
Supporting variable: Hematology (trend) [1, 4]: 0
frequency of normal posture score in comparison with control group ([2]; Day 15, Group 3 ML (IPx2): 25 mg/kg IP, Day −3 to 0 (6x), prophylactic, 5.8 Gy): did not result in such changes
ARS posture score, most frequent grade (mode) ([2]; Day 15, Group 4 ML (POx2): 25 mg/kg per os, Day −3 to 0 (6x), prophylactic, 5.8 Gy, control group 2 mild): normal
ARS posture score, most frequent grade (mode) ([2]; Day 15, Group 5 ML (POx1): 50 mg/kg per os SID Day −2, −1, 0, prophylactic, 5.8 Gy, control group 2 mild): normal
ARS coat grade ([2]; Day 21, Group 9 MH (POx1): 50 mg/kg per os SID Day 1, 2, 3, therapeutic, 6.0 Gy, control Group 8 mild (20%) and moderate (27%)): mostly normal
frequency of normal posture score in comparison to control group 8 ([2]; Day 30, Group 9 MH (POx1): 50 mg/kg per os SID Day 1, 2, 3, therapeutic, 6.0 Gy): trend for the increased frequency of normal posture score
Supporting variable: ARS scores (trend) [2, 5]: −
Supporting variable: ARS scores (trend) [2, 6]: +
Supporting variable: ARS scores (trend) [2, 7]: +
testes degeneration, proportion by severity category ([3]; Day 14, n.s. (p=0.264), Group 9 MH (POx1): 50 mg/kg per os SID Day 1, 2, 3, therapeutic, 6.0 Gy): higher proportion of testes in minimal category
decreased cellularity of the bone marrow of both sternum and femur compared to vehicle-treated control Group 8 ([3]; Day 14 and 30 necropsies, Group 9 MH (POx1): 50 mg/kg per os SID Day 1, 2, 3, therapeutic, 6.0 Gy): lower severity of decreased cellularity
bone marrow cellularity decrease, category ([3]; Day 30, Group 3 ML (IPx2): 25 mg/kg IP, Day −3 to 0 (6x), prophylactic, 5.8 Gy): minimal category
Supporting variable: Bone marrow celluarity (trend) [3, 5]: +
Supporting variable: Testes degradation (trend) [3, 5]: +
decrease of bone marrow cellularity [3, 4]: did not show any significant changes
Supporting variable: Bone marrow celluarity (trend) [3, 6]: −
decrease of bone marrow cellularity [3, 6]: did not show any significant changes
Supporting variable: Bone marrow celluarity (trend) [3, 7]: +
organ weights data ([3]; all test article groups): no test article-related changes

B1: G-CSF: Neupogen (Filgrastim; Granulocyte colony-stimulating factor; G-CSF), positive control article, Amgen (protein, UniProt P09919 31-207, looked up)
Granulocyte …: TPLGPASSLPQSFLLKCLEQVRKIQGDGAALQEKLVSECATYKLCHPEELVLLGHSLGIPWAPLSSCPSQALQLAGCLSQLHSGLFLYQGLLQALEGISPELGPTLDTLQLDVADFATTIWQQMEELGMAPALQPTQGAMPAFASAFQRRAGGVLVASHLQSFLEVSYRVLRHLAQP
modifications: filgrastim
notes: Neupogen (Filgrastim; Granulocyte colony-stimulating factor; G-CSF), positive control article, Amgen
hemoglobin and hematocrit, red blood cells compared to control group 2 ([1]; Day 14, Group 6 GL (SCx1): 0.34 mg/kg SC SID Day 1, 2, 3, therapeutic, 5.8 Gy): increased
median WBC and neutrophil count compared to control Group 2 ([1]; Day 30, Group 6 GL (SCx1): 0.34 mg/kg SC SID Day 1, 2, 3, therapeutic, 5.8 Gy): trend in the increase
ARS scoring for coat ([2]; Day 9, Group 6 GL (SCx1): 0.34 mg/kg SC SID Day 1, 2, 3, therapeutic, 5.8 Gy): increased percentage of mild grade
ARS posture score, most frequent grade (mode) ([2]; Day 15, Group 6 GL (SCx1): 0.34 mg/kg SC SID Day 1, 2, 3, therapeutic, 5.8 Gy, control group 2 mild (65%)): normal
Supporting variable: ARS scores (trend) [2, 8]: +
gross pathology: findings not typical of acute radiation syndrome [3, 9]: cysts in spleen were observed
gross pathology: lesions typical of acute radiation syndrome (red discoloration of organs) [3, 9]: no red discoloration in the brain, testes
bone marrow cellularity decrease, category ([3]; Day 30, insignificant, Group 6 GL (SCx1): 0.34 mg/kg SC SID Day 1, 2, 3, therapeutic, 5.8 Gy): minimal category in sternum and no marked category in femur bone marrow
Supporting variable: Bone marrow celluarity (trend) [3, 8]: +
Supporting variable: Testes degradation (trend) [3, 8]: +
